Data as given in patent US20230085307A1, “PYRIDAZINONE COMPOUND AND HERBICIDE” (NISSAN CHEMICAL CORPORATION, priority 2019, published 2023).

Columns and labels:
redroot pigweed = experiment: Test Example 4: herbicidal effect by soil treatment (Table 19, symbol N); type: in vivo, redroot pigweed (Amaranthus retroflexus); details: amount of applied herbicide 320 g/ha
Outline: (§1)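 Three weeks of greenhouse growth at 25° C. to 30° C. followed a uniform surface spray of water-diluted emulsion at a predetermined herbicide amount. Seeds had been sown beforehand under about 1.5 cm of sterilized diluvial soil. Grading followed criteria set out in an earlier test.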

blackgrass [1] = experiment: Test Example 5: herbicidal effect by foliage application, plastic box (Table 20, symbol J); type: in vivo, blackgrass (Alopecurus myosuroides); details: foliage application, three weeks after application
Outline: (§2)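 Plants sown in sterilized diluvial soil and grown 14 days in a greenhouse at 25° C to 30° C, then sprayed on the foliage with the compound's emulsion diluted in water to a predetermined herbicide amount. Injury to weeds and crops scored three weeks after application on a visual rating scale.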

blackgrass [2] = experiment: Test Example 4: herbicidal effect by soil treatment (Table 19, symbol J); type: in vivo, blackgrass (Alopecurus myosuroides); details: amount of applied herbicide 320 g/ha
Outline: as §1

chickweed [3] = experiment: Test Example 4: herbicidal effect by soil treatment (Table 19, symbol P); type: in vivo, common chickweed (Stellaria media); details: amount of applied herbicide 320 g/ha
Outline: as §1

rice flat sedge = experiment: Test Example 3: herbicidal effect by foliage application, Wagner pot (Table 18, symbol E); type: in vivo, rice flat sedge (Cyperus iria)
Outline: (§3)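 Plants were sown in alluvial soil held under 0.1–0.5 cm standing water and grown 14 days in a greenhouse at 25–30 °C. An emulsifiable formulation, water-diluted to the set dose, was then sprayed onto the foliage, and effects were scored three weeks later using previously defined criteria.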

velvetleaf [4] = experiment: Test Example 5: herbicidal effect by foliage application, plastic box (Table 20, symbol M); type: in vivo, velvetleaf (Abutilon theophrasti); details: foliage application, three weeks after application
Outline: as §2

Italian ryegrass [5] = experiment: Test Example 4: herbicidal effect by soil treatment (Table 19, symbol K); type: in vivo, Italian ryegrass (Lolium multiflorum); details: amount of applied herbicide 320 g/ha
Outline: as §1

barnyard grass [6] = experiment: Test Example 3: herbicidal effect by foliage application, Wagner pot (Table 18, symbol H); type: in vivo, barnyard grass (Echinochloa crus-galli)
Outline: as §3

windgrass [7] = experiment: Test Example 4: herbicidal effect by soil treatment (Table 19, symbol L); type: in vivo, windgrass (Apera spica-venti); details: amount of applied herbicide 320 g/ha
Outline: as §1

barnyard grass [8] = experiment: Test Example 5: herbicidal effect by foliage application, plastic box (Table 20, symbol H); type: in vivo, barnyard grass (Echinochloa crus-galli); details: foliage application, three weeks after application
Outline: as §2

false cleavers [9] = experiment: Test Example 4: herbicidal effect by soil treatment (Table 19, symbol Q); type: in vivo, false cleavers (Galium spurium); details: amount of applied herbicide 320 g/ha
Outline: as §1

Italian ryegrass [10] = experiment: Test Example 5: herbicidal effect by foliage application, plastic box (Table 20, symbol K); type: in vivo, Italian ryegrass (Lolium multiflorum); details: foliage application, three weeks after application
Outline: as §2

southern crabgrass [11] = experiment: Test Example 5: herbicidal effect by foliage application, plastic box (Table 20, symbol F); type: in vivo, southern crabgrass (Digitaria ciliaris); details: foliage application, three weeks after application
Outline: as §2

velvetleaf [12] = experiment: Test Example 4: herbicidal effect by soil treatment (Table 19, symbol M); type: in vivo, velvetleaf (Abutilon theophrasti); details: amount of applied herbicide 320 g/ha
Outline: as §1

lambsquarters [13] = experiment: Test Example 4: herbicidal effect by soil treatment (Table 19, symbol O); type: in vivo, lambsquarters (Chenopodium album); details: amount of applied herbicide 320 g/ha
Outline: as §1

Chinese sprangletop = experiment: Test Example 3: herbicidal effect by foliage application, Wagner pot (Table 18, symbol D); type: in vivo, chinese sprangletop (Leptochloa chinensis)
Outline: as §3

wild oat [14] = experiment: Test Example 5: herbicidal effect by foliage application, plastic box (Table 20, symbol I); type: in vivo, wild oat (Avena fatua); details: foliage application, three weeks after application
Outline: as §2

windgrass [15] = experiment: Test Example 5: herbicidal effect by foliage application, plastic box (Table 20, symbol L); type: in vivo, windgrass (Apera spica-venti); details: foliage application, three weeks after application
Outline: as §2

persian speedwell [16] = experiment: Test Example 4: herbicidal effect by soil treatment (Table 19, symbol R); type: in vivo, Persian speedwell (Veronica persica); details: amount of applied herbicide 320 g/ha
Outline: as §1

persian speedwell [17] = experiment: Test Example 5: herbicidal effect by foliage application, plastic box (Table 20, symbol R); type: in vivo, Persian speedwell (Veronica persica); details: foliage application, three weeks after application
Outline: as §2

lambsquarters [18] = experiment: Test Example 5: herbicidal effect by foliage application, plastic box (Table 20, symbol O); type: in vivo, lambsquarters (Chenopodium album); details: foliage application, three weeks after application
Outline: as §2

green foxtail [19] = experiment: Test Example 5: herbicidal effect by foliage application, plastic box (Table 20, symbol G); type: in vivo, green foxtail (Setaria viridis); details: foliage application, three weeks after application
Outline: as §2

green foxtail [20] = experiment: Test Example 4: herbicidal effect by soil treatment (Table 19, symbol G); type: in vivo, green foxtail (Setaria viridis); details: amount of applied herbicide 320 g/ha
Outline: as §1

barnyard grass [21] = experiment: Test Example 4: herbicidal effect by soil treatment (Table 19, symbol H); type: in vivo, barnyard grass (Echinochloa crus-galli); details: amount of applied herbicide 320 g/ha
Outline: as §1

wild oat [22] = experiment: Test Example 4: herbicidal effect by soil treatment (Table 19, symbol I); type: in vivo, wild oat (Avena fatua); details: amount of applied herbicide 320 g/ha
Outline: as §1

chickweed [23] = experiment: Test Example 5: herbicidal effect by foliage application, plastic box (Table 20, symbol P); type: in vivo, common chickweed (Stellaria media); details: foliage application, AAH 320 g/ha, three weeks after application
Outline: as §2

false cleavers [24] = experiment: Test Example 5: herbicidal effect by foliage application, plastic box (Table 20, symbol Q); type: in vivo, false cleavers (Galium spurium); details: foliage application, three weeks after application
Outline: as §2

southern crabgrass [25] = experiment: Test Example 4: herbicidal effect by soil treatment (Table 19, symbol F); type: in vivo, southern crabgrass (Digitaria ciliaris); details: amount of applied herbicide 320 g/ha
Outline: as §1

[26] = amount of applied herbicide 320 g/ha

Cc1nn(C)c(=O)c(-c2c(-c3ccc4c(c3)OC(F)(F)O4)sc3ccccc23)c1O [1-099]
herbicidal effect rating, N: redroot pigweed (redroot pigweed): 0 (Herbicidal rate of 5% or less (almost no effect))
J: blackgrass, herbicidal effect (blackgrass [1]; AAH 320 g/ha): 1 (Herbicidal rate of 5% or more and less than 20%)
herbicidal effect rating, J: blackgrass (blackgrass [2]): 0 (Herbicidal rate of 5% or less (almost no effect))
herbicidal effect rating, P: chickweed (chickweed [3]): 4 (Herbicidal rate of 70% or more and less than 90%)
herbicidal effect on E (rice flat sedge), rating 0-5 (rice flat sedge; 320 g/ha): 5 (Herbicidal rate of 90% or more (almost completely withered))
M: velvetleaf, herbicidal effect (velvetleaf [4]; AAH 320 g/ha): 5 (Herbicidal rate of 90% or more (almost completely withered))
herbicidal effect rating, K: Italian ryegrass (Italian ryegrass [5]): 0 (Herbicidal rate of 5% or less (almost no effect))
herbicidal effect on H (barnyard grass), rating 0-5 (barnyard grass [6]; 320 g/ha): 0 (Herbicidal rate of 5% or less (almost no effect))
herbicidal effect rating, L: windgrass (windgrass [7]): 0 (Herbicidal rate of 5% or less (almost no effect))
H: barnyard grass, herbicidal effect (barnyard grass [8]; AAH 320 g/ha): 0 (Herbicidal rate of 5% or less (almost no effect))
herbicidal effect rating, Q: false cleavers (false cleavers [9]): 2 (Herbicidal rate of 20% or more and less than 40%)
K: Italian ryegrass, herbicidal effect (Italian ryegrass [10]; AAH 320 g/ha): 3 (Herbicidal rate of 40% or more and less than 70%)
F: southern crabgrass, herbicidal effect (southern crabgrass [11]; AAH 320 g/ha): 0 (Herbicidal rate of 5% or less (almost no effect))
herbicidal effect rating, M: velvetleaf (velvetleaf [12]): 0 (Herbicidal rate of 5% or less (almost no effect))
herbicidal effect rating, O: lambsquarters (lambsquarters [13]): 0 (Herbicidal rate of 5% or less (almost no effect))
herbicidal effect on D (Chinese sprangletop), rating 0-5 (Chinese sprangletop; 320 g/ha): 0 (Herbicidal rate of 5% or less (almost no effect))
I: wild oat, herbicidal effect (wild oat [14]; AAH 320 g/ha): 0 (Herbicidal rate of 5% or less (almost no effect))
L: windgrass, herbicidal effect (windgrass [15]; AAH 320 g/ha): 0 (Herbicidal rate of 5% or less (almost no effect))
herbicidal effect rating, R: persian speedwell (persian speedwell [16]): 5 (Herbicidal rate of 90% or more (almost completely withered))
R: persian speedwell, herbicidal effect (persian speedwell [17]; AAH 320 g/ha): 5 (Herbicidal rate of 90% or more (almost completely withered))
O: lambsquarters, herbicidal effect (lambsquarters [18]; AAH 320 g/ha): 3 (Herbicidal rate of 40% or more and less than 70%)
G: green foxtail, herbicidal effect (green foxtail [19]; AAH 320 g/ha): 0 (Herbicidal rate of 5% or less (almost no effect))
herbicidal effect rating, G: green foxtail (green foxtail [20]): 0 (Herbicidal rate of 5% or less (almost no effect))
herbicidal effect rating, H: barnyard grass (barnyard grass [21]): 0 (Herbicidal rate of 5% or less (almost no effect))
herbicidal effect rating, I: wild oat (wild oat [22]): 0 (Herbicidal rate of 5% or less (almost no effect))
P: chickweed, herbicidal effect (chickweed [23]): 5 (Herbicidal rate of 90% or more (almost completely withered))
Q: false cleavers, herbicidal effect (false cleavers [24]; AAH 320 g/ha): 2 (Herbicidal rate of 20% or more and less than 40%)
herbicidal effect rating, F: southern crabgrass (southern crabgrass [25]): 0 (Herbicidal rate of 5% or less (almost no effect))

COc1cc(F)ccc1-c1oc2ccccc2c1-c1c(O)c(C)nn(C)c1=O [8-001]
N: redroot pigweed, herbicidal effect grade (redroot pigweed): 0 (Herbicidal rate of 5% or less (almost no effect))
herbicidal effect on blackgrass (J) (blackgrass [1]; 320 g/ha): 0 (Herbicidal rate of 5% or less (almost no effect))
J: blackgrass, herbicidal effect grade (blackgrass [2]): 0 (Herbicidal rate of 5% or less (almost no effect))
P: chickweed, herbicidal effect grade (chickweed [3]): 0 (Herbicidal rate of 5% or less (almost no effect))
Herbicidal effect on E (rice flat sedge), foliage application (rice flat sedge; [26]): 1 (Herbicidal rate of 5% or more and less than 20%)
herbicidal effect on velvetleaf (M) (velvetleaf [4]; 320 g/ha): 3 (Herbicidal rate of 40% or more and less than 70%)
K: Italian ryegrass, herbicidal effect grade (Italian ryegrass [5]): 0 (Herbicidal rate of 5% or less (almost no effect))
Herbicidal effect on H (barnyard grass), foliage application (barnyard grass [6]; [26]): 4 (Herbicidal rate of 70% or more and less than 90%)
L: windgrass, herbicidal effect grade (windgrass [7]): 0 (Herbicidal rate of 5% or less (almost no effect))
herbicidal effect on barnyard grass (H) (barnyard grass [8]; 320 g/ha): 3 (Herbicidal rate of 40% or more and less than 70%)
Q: false cleavers, herbicidal effect grade (false cleavers [9]): 0 (Herbicidal rate of 5% or less (almost no effect))
herbicidal effect on Italian ryegrass (K) (Italian ryegrass [10]; 320 g/ha): 3 (Herbicidal rate of 40% or more and less than 70%)
herbicidal effect on southern crabgrass (F) (southern crabgrass [11]; 320 g/ha): 0 (Herbicidal rate of 5% or less (almost no effect))
M: velvetleaf, herbicidal effect grade (velvetleaf [12]): 0 (Herbicidal rate of 5% or less (almost no effect))
O: lambsquarters, herbicidal effect grade (lambsquarters [13]): 0 (Herbicidal rate of 5% or less (almost no effect))
Herbicidal effect on D (Chinese sprangletop), foliage application (Chinese sprangletop; [26]): 3 (Herbicidal rate of 40% or more and less than 70%)
herbicidal effect on wild oat (I) (wild oat [14]; 320 g/ha): 3 (Herbicidal rate of 40% or more and less than 70%)
herbicidal effect on windgrass (L) (windgrass [15]; 320 g/ha): 5 (Herbicidal rate of 90% or more (almost completely withered))
R: persian speedwell, herbicidal effect grade (persian speedwell [16]): 0 (Herbicidal rate of 5% or less (almost no effect))
herbicidal effect on persian speedwell (R) (persian speedwell [17]; 320 g/ha): 4 (Herbicidal rate of 70% or more and less than 90%)
herbicidal effect on lambsquarters (O) (lambsquarters [18]; 320 g/ha): 3 (Herbicidal rate of 40% or more and less than 70%)
herbicidal effect on green foxtail (G) (green foxtail [19]; 320 g/ha): 3 (Herbicidal rate of 40% or more and less than 70%)
G: green foxtail, herbicidal effect grade (green foxtail [20]): 0 (Herbicidal rate of 5% or less (almost no effect))
H: barnyard grass, herbicidal effect grade (barnyard grass [21]): 0 (Herbicidal rate of 5% or less (almost no effect))
I: wild oat, herbicidal effect grade (wild oat [22]): 3 (Herbicidal rate of 40% or more and less than 70%)
herbicidal effect on false cleavers (Q) (false cleavers [24]; 320 g/ha): 4 (Herbicidal rate of 70% or more and less than 90%)
F: southern crabgrass, herbicidal effect grade (southern crabgrass [25]): 0 (Herbicidal rate of 5% or less (almost no effect))
